Patent US20230265151A1, “GIP/GLP1 CO-AGONIST COMPOUNDS” (priority 2020, published 2023)
Like-named read-outs stand apart in the source and are kept apart here. Where a SMILES comes first, the peptide text is derived from it. Side-chain parts run from the residue outwards. [ ]: non-standard residue; d: D form. The star is where a group is joined. αMePhe(2-F) = C[C@](N)(Cc1ccccc1F)C(=O)O; C14 diacid = O=C(O)CCCCCCCCCCCCC(=O)*; αMeY = C[C@](N)(Cc1ccc(O)cc1)C(=O)O; 4Pal = N[C@@H](Cc1ccncc1)C(=O)O; αMeL = CC(C)C[C@](C)(N)C(=O)O; Orn = NCCC[C@H](N)C(=O)O; AEEA = NCCOCCOCC(=O)O; Aib = CC(C)(N)C(=O)O

Tests used:
Assay type in all cases: cell-based
hGIPR = target: T1, hGIPR (Homo sapiens, UniProt P48546); assay: Functional cAMP formation (HTRF) in HEK-293 clonal cells expressing hGIPR, 0.1% bovine casein, without or with 1.0% human serum albumin; settings: for Emax: read-out: hGIPR Emax, % ± SEM; for EC50: geometric mean, read-out: hGIPR EC50, nM (SEM, n)
T1 construct: expressed in transfected cells
T1 sequence (P48546 22-466): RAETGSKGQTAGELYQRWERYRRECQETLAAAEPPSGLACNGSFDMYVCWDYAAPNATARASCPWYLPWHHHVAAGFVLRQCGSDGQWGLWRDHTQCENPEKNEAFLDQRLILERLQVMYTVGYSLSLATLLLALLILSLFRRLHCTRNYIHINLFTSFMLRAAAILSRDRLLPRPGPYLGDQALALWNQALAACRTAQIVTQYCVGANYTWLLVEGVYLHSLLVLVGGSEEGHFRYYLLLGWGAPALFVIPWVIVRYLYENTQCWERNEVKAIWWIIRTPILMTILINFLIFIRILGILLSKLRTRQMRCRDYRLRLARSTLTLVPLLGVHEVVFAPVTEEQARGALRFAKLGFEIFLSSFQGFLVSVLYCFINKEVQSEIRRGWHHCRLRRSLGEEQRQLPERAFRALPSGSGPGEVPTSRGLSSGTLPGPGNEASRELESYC
How it was run: (§1)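 Cells were stimulated with peptide for 30 min at 37° C, then lysed in buffer carrying cAMP-d2 and anti-cAMP Eu3+-cryptate for a competitive HTRF read after at least 60 min at room temperature. The 665/620 nm ratio was converted to nM cAMP against a standard curve.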

hGCGR = target: T2, hGCGR (Homo sapiens, UniProt P47871); assay: Functional cAMP formation (HTRF) in HEK-293 clonal cells expressing hGCGR, 0.1% bovine casein, without or with 1.0% human serum albumin; settings: geometric mean, read-out: hGCGR EC50, nM (SEM, n)
T2 construct: expressed in transfected cells
How it was run: as §1

hGLP-1R = hGLP-1R (Homo sapiens, UniProt P43220); assay: Functional cAMP formation (HTRF) in HEK-293 clonal cells expressing hGLP-1R, 0.1% bovine casein, without or with 1.0% human serum albumin; design: expressed in transfected cells; settings: for Emax: read-out: hGLP-1R Emax, % ± SEM; for EC50: geometric mean, read-out: hGLP-1R EC50, nM (SEM, n)
How it was run: as §1

[1] = HEK293, 0.1% bovine casein and 1.0% human serum albumin, 37° C., percent of maximal response to GIP(1-42)NH2
[2] = HEK293, percent of maximal response to GIP(1-42)NH2, 37° C., 0.1% bovine casein, arithmetic mean
[3] = cAMP, incubated at 37° C., 0.1% bovine casein (no human serum albumin)
[4] = 0.1% bovine casein and 1.0% human serum albumin, 37° C.
[5] = HEK293, 0.1% bovine casein and 1.0% human serum albumin, 37° C., percent of maximal response to GLP-1(7-36)NH2
[6] = HEK293, percent of maximal response to GLP-1(7-36)NH2, 37° C., 0.1% bovine casein, arithmetic mean

T2 sequence (P47871 26-477): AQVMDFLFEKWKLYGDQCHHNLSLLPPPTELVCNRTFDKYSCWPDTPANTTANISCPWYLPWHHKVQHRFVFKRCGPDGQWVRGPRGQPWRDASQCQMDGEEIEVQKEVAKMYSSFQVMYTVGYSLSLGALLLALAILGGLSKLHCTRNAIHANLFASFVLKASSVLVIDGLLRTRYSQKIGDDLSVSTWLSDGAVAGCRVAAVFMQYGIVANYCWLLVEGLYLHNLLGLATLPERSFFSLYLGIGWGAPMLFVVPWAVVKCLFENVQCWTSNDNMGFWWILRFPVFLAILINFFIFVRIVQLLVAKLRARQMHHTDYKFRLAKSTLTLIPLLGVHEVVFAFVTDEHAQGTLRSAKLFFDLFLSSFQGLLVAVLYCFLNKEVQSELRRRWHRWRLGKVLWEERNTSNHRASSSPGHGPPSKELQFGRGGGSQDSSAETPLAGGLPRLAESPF
Chain of hGLP-1R (P43220 24-463): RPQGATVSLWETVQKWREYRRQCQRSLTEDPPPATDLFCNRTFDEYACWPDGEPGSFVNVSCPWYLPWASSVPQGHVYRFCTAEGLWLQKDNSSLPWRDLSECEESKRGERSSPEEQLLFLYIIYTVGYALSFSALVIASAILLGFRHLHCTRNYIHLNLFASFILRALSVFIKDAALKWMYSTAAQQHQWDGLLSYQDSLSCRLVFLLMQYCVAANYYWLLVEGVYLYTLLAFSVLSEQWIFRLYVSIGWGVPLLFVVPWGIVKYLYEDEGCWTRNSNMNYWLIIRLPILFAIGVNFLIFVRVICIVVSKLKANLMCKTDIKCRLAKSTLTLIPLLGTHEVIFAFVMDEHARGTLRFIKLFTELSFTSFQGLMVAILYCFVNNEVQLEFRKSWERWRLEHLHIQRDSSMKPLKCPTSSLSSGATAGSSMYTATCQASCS

Compound	Emax (hGIPR; [1]) [%]	Emax (hGIPR; [2]) [%]	EC50 (hGIPR; [3]) [nM]	EC50 (hGCGR; [4]) [nM]	EC50 (hGCGR; [3]) [nM]	Emax (hGLP-1R; [5]) [%]	Emax (hGLP-1R; [6]) [%]	EC50 (hGLP-1R; [3]) [nM]	EC50 (hGIPR; [4]) [nM]	EC50 (hGLP-1R; [4]) [nM]
CC[C@H](C)[C@H](NC(=O)[C@H](CCCN)NC(=O)[C@H](CC(=O)O)NC(=O)[C@H](CC(C)C)NC(=O)[C@](C)(CC(C)C)NC(=O)[C@@H](NC(=O)[C@H](CO)NC(=O)[C@H](Cc1ccncc1)NC(=O)[C@H](CC(=O)O)NC(=O)[C@H](CO)NC(=O)[C@@H](NC(=O)[C@](C)(Cc1ccccc1F)NC(=O)[C@@H](NC(=O)CNC(=O)[C@H](CCC(=O)O)NC(=O)C(C)(C)NC(=O)[C@@H](N)Cc1ccc(O)cc1)[C@@H](C)O)[C@@H](C)O)[C@@H](C)CC)C(=O)N[C@@H](C)C(=O)N[C@@H](CCC(N)=O)C(=O)NC(C)(C)C(=O)N[C@@H](CCCCNC(=O)COCCOCCNC(=O)COCCOCCNC(=O)CCCCCCCCCCCCC(=O)O)C(=O)N[C@@H](Cc1ccccc1)C(=O)N[C@H](C(=O)N[C@H](CCC(=O)O)C(=O)N[C@@](C)(Cc1ccc(O)cc1)C(=O)N[C@@H](CC(C)C)C(=O)N[C@H](C(=O)N[C@@H](CCCCNC(=O)COCCOCCNC(=O)COCCOCCNC(=O)CCCCCCCCCCCCC(=O)O)C(=O)NCC(=O)NCC(=O)N1CCC[C@H]1C(=O)N[C@@H](CO)C(=O)N[C@@H](CO)C(=O)NCC(=O)N[C@@H](C)C(=O)N1CCC[C@H]1C(=O)N1CCC[C@H]1C(=O)N1CCC[C@H]1C(=O)N[C@@H](CO)C(N)=O)[C@@H](C)CC)[C@@H](C)CC [Example 222]	77.9	98.7	0.0195	> 9950	> 9950	117	91.6	0.518	–	–
CC[C@H](C)[C@H](NC(=O)[C@H](CCCN)NC(=O)[C@H](CC(=O)O)NC(=O)[C@H](CC(C)C)NC(=O)[C@](C)(CC(C)C)NC(=O)[C@@H](NC(=O)[C@H](CO)NC(=O)[C@H](Cc1ccncc1)NC(=O)[C@H](CC(=O)O)NC(=O)[C@H](CO)NC(=O)[C@@H](NC(=O)[C@](C)(Cc1ccccc1F)NC(=O)[C@@H](NC(=O)CNC(=O)[C@H](CCC(=O)O)NC(=O)C(C)(C)NC(=O)[C@@H](N)Cc1ccc(O)cc1)[C@@H](C)O)[C@@H](C)O)[C@@H](C)CC)C(=O)N[C@@H](C)C(=O)N[C@@H](CCC(N)=O)C(=O)NC(C)(C)C(=O)N[C@@H](CCC(=O)O)C(=O)N[C@@H](Cc1ccccc1)C(=O)N[C@H](C(=O)N[C@H](CCC(=O)O)C(=O)N[C@@](C)(Cc1ccc(O)cc1)C(=O)N[C@@H](CC(C)C)C(=O)N[C@H](C(=O)N[C@@H](CCCCNC(=O)COCCOCCNC(=O)COCCOCCNC(=O)CCCCCCCCCCCCC(=O)O)C(=O)NCC(=O)NCC(=O)N1CCC[C@H]1C(=O)N[C@@H](CO)C(=O)N[C@@H](CO)C(=O)NCC(=O)N[C@@H](C)C(=O)N1CCC[C@H]1C(=O)N1CCC[C@H]1C(=O)N1CCC[C@H]1C(=O)N[C@@H](CO)C(=O)N[C@@H](CCCCNC(=O)COCCOCCNC(=O)COCCOCCNC(=O)CCCCCCCCCCCCC(=O)O)C(N)=O)[C@@H](C)CC)[C@@H](C)CC [Example 223] (H-Y[Aib]EGT[αMePhe(2-F)]TSD[4Pal]SI[αMeL]LD[Orn]IAQ[Aib]EFI[dE][αMeY]LIK([AEEA-AEEA-C14 diacid])GGPSSGAPPPSK([AEEA-AEEA-C14 diacid])-NH2)	79.2	–	0.0252	> 9950	> 9950	115	94	1.43	7.84	–
CC[C@H](C)[C@H](NC(=O)[C@H](CC(C)C)NC(=O)[C@](C)(Cc1ccc(O)cc1)NC(=O)[C@@H](CCC(=O)O)NC(=O)[C@@H](NC(=O)[C@H](Cc1ccccc1)NC(=O)[C@H](CCC(=O)O)NC(=O)C(C)(C)NC(=O)[C@H](CCC(N)=O)NC(=O)[C@H](C)NC(=O)[C@H](CCCCNC(=O)COCCOCCNC(=O)COCCOCCNC(=O)COCCOCCNC(=O)CC[C@H](NC(=O)CCCCCCCCCCCCC(=O)O)C(=O)O)NC(=O)[C@H](CCCN)NC(=O)[C@H](CC(=O)O)NC(=O)[C@H](CC(C)C)NC(=O)[C@](C)(CC(C)C)NC(=O)[C@@H](NC(=O)[C@H](CO)NC(=O)[C@H](Cc1ccncc1)NC(=O)[C@H](CC(=O)O)NC(=O)[C@H](CO)NC(=O)[C@@H](NC(=O)[C@](C)(Cc1ccccc1F)NC(=O)[C@@H](NC(=O)CNC(=O)[C@H](CCC(=O)O)NC(=O)C(C)(C)NC(=O)[C@@H](N)Cc1ccc(O)cc1)[C@@H](C)O)[C@@H](C)O)[C@@H](C)CC)[C@@H](C)CC)C(=O)N[C@@H](CCCCNC(=O)COCCOCCNC(=O)COCCOCCNC(=O)COCCOCCNC(=O)CC[C@H](NC(=O)CCCCCCCCCCCCC(=O)O)C(=O)O)C(=O)NCC(=O)NCC(=O)N1CCC[C@H]1C(=O)N[C@@H](CO)C(=O)N[C@@H](CO)C(=O)NCC(=O)N[C@@H](C)C(=O)N1CCC[C@H]1C(=O)N1CCC[C@H]1C(=O)N1CCC[C@H]1C(=O)N[C@@H](CO)C(N)=O [Example 224]	90.6	109	–	> 9950	> 9950	–	88.4	7.51	2.92	–
CC[C@H](C)[C@H](NC(=O)[C@H](CC(C)C)NC(=O)[C@](C)(Cc1ccc(O)cc1)NC(=O)[C@@H](CCC(=O)O)NC(=O)[C@@H](NC(=O)[C@H](Cc1ccccc1)NC(=O)[C@H](CCC(=O)O)NC(=O)C(C)(C)NC(=O)[C@H](CCC(N)=O)NC(=O)[C@H](C)NC(=O)[C@H](CCCCNC(=O)COCCOCCNC(=O)COCCOCCNC(=O)COCCOCCNC(=O)CC[C@H](NC(=O)CCCCCCCCCCCCC(=O)O)C(=O)O)NC(=O)[C@H](CCCN)NC(=O)[C@H](CC(=O)O)NC(=O)[C@H](CC(C)C)NC(=O)[C@](C)(CC(C)C)NC(=O)[C@@H](NC(=O)[C@H](CO)NC(=O)[C@H](Cc1ccncc1)NC(=O)[C@H](CC(=O)O)NC(=O)[C@H](CO)NC(=O)[C@@H](NC(=O)[C@](C)(Cc1ccccc1F)NC(=O)[C@@H](NC(=O)CNC(=O)[C@H](CCC(=O)O)NC(=O)C(C)(C)NC(=O)[C@@H](N)Cc1ccc(O)cc1)[C@@H](C)O)[C@@H](C)O)[C@@H](C)CC)[C@@H](C)CC)C(=O)N[C@@H](CCC(=O)O)C(=O)NCC(=O)NCC(=O)N1CCC[C@H]1C(=O)N[C@@H](CO)C(=O)N[C@@H](CO)C(=O)NCC(=O)N[C@@H](C)C(=O)N1CCC[C@H]1C(=O)N1CCC[C@H]1C(=O)N1CCC[C@H]1C(=O)N[C@@H](CO)C(=O)N[C@@H](CCCCNC(=O)COCCOCCNC(=O)COCCOCCNC(=O)COCCOCCNC(=O)CC[C@H](NC(=O)CCCCCCCCCCCCC(=O)O)C(=O)O)C(N)=O [Example 225]	67.5	105	–	> 9950	> 9950	–	92.1	–	1.81	51.6
CC[C@H](C)[C@H](NC(=O)[C@H](CCCN)NC(=O)[C@H](CC(=O)O)NC(=O)[C@H](CC(C)C)NC(=O)[C@](C)(CC(C)C)NC(=O)[C@@H](NC(=O)[C@H](CO)NC(=O)[C@H](Cc1ccncc1)NC(=O)[C@H](CC(=O)O)NC(=O)[C@H](CO)NC(=O)[C@@H](NC(=O)[C@](C)(Cc1ccccc1F)NC(=O)[C@@H](NC(=O)CNC(=O)[C@H](CCC(=O)O)NC(=O)C(C)(C)NC(=O)[C@@H](N)Cc1ccc(O)cc1)[C@@H](C)O)[C@@H](C)O)[C@@H](C)CC)C(=O)N[C@@H](C)C(=O)N[C@@H](CCC(N)=O)C(=O)NC(C)(C)C(=O)N[C@@H](CCC(=O)O)C(=O)N[C@@H](Cc1ccccc1)C(=O)N[C@H](C(=O)N[C@@H](CCCCNC(=O)COCCOCCNC(=O)COCCOCCNC(=O)COCCOCCNC(=O)CC[C@H](NC(=O)CCCCCCCCCCCCC(=O)O)C(=O)O)C(=O)N[C@@](C)(Cc1ccc(O)cc1)C(=O)N[C@@H](CC(C)C)C(=O)N[C@H](C(=O)N[C@@H](CCCCNC(=O)COCCOCCNC(=O)COCCOCCNC(=O)COCCOCCNC(=O)CC[C@H](NC(=O)CCCCCCCCCCCCC(=O)O)C(=O)O)C(=O)NCC(=O)NCC(=O)N1CCC[C@H]1C(=O)N[C@@H](CO)C(=O)N[C@@H](CO)C(=O)NCC(=O)N[C@@H](C)C(=O)N1CCC[C@H]1C(=O)N1CCC[C@H]1C(=O)N1CCC[C@H]1C(=O)N[C@@H](CO)C(N)=O)[C@@H](C)CC)[C@@H](C)CC [Example 226]	92.1	–	0.0232	> 9950	> 9950	118	–	–	–	11.3
